Reference: patent KR20230047805A, “알기나제 유래 펩타이드를 포함하는 심혈관 질환 예방 또는 치료용 조성물” (강원대학교산학협력단, priority 2021, dated 2023)

Columns and labels:
p32 단백질 [1] = molecular target: T1, p32 단백질 (Homo sapiens, UniProt Q07021); test: Western blot of p32 protein level in peptide-treated HUVECs; assay type: cell-based; conditions: 12 h
T1 construct: 펩타이드를 처리한 HUVECs을 1X SDS sample buffer로 lysis한 뒤; endogenous in cells; host or cells: HUVECs
T1 sequence (Q07021 74-282): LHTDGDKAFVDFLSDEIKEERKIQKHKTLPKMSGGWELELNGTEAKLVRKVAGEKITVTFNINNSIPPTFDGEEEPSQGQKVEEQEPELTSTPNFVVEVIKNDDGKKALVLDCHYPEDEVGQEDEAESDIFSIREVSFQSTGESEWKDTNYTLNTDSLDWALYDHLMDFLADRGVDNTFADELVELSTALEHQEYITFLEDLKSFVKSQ

CaMKII = test: Western blot of CaMKII phosphorylation in peptide-treated HUVECs; assay type: cell-based, human; conditions: peptide 10 μM, 12 h
eNOS = test: Western blot of eNOS phosphorylation (Ser1177, Thr495) in peptide-treated HUVECs; assay type: cell-based, human; conditions: peptide 10 μM, 12 h
p32 단백질 [2] = molecular target: T1, p32 단백질; test: Mitochondrial fractionation and immunoblotting of p32 in HUVECs; assay type: cell-based; conditions: peptide 10 μM, 12 h, mitochondrial fraction
p32 단백질 [3] = molecular target: T1, p32 단백질; test: Co-immunoprecipitation: ubiquitination of p32 in HUVECs; assay type: cell-based; conditions: peptide 10 μM, 12 h, co-IP with p32 antibody
알기나제와 p32 단백질의 결합 = molecular target: T2, 알기나제와 p32 단백질의 결합 (Homo sapiens, UniProt Q07021); test: Co-immunoprecipitation: binding of arginase and p32 in HUVECs; assay type: cell-based; conditions: peptide 10 μM, 12 h, co-IP with p32 antibody
T2 construct: YDIQY 펩타이드를 처리한 HUVECs을 RIPA buffer를 이용하여 lysis하고; endogenous in cells; host or cells: HUVECs
T2 sequence (Q07021 74-282): T1 sequence (Q07021 74-282)

p32 단백질 [4] = molecular target: T1, p32 단백질; test: p32 protein level under proteasome inhibition (MG132) in HUVECs, Western blot; assay type: cell-based; conditions: peptide 10 μM, 12 h
ApoE-/-+HCD 생쥐 대동맥 [5] = test: NO measurement (DAF-FM fluorescence) in aorta of atherosclerosis model mice after i.v. peptide; assay type: in vivo, mouse; conditions: 0.25 mM/kg i.v. every second day, 5 injections in 10 days
ApoE-/-+HCD 생쥐 대동맥 [6] = test: ROS measurement (DHE fluorescence) in aorta of atherosclerosis model mice after i.v. peptide; assay type: in vivo, mouse; conditions: 0.25 mM/kg i.v. every second day, 5 injections in 10 days
ApoE-/-+HCD 생쥐 대동맥 절편 = test: Vascular tension measurement of aortic segments of atherosclerosis model mice after i.v. peptide; assay type: in vivo, mouse
[7] = Tail-cuff blood pressure measurement (CODA) in wild-type mice after i.v. peptide; assay type: in vivo, mouse; conditions: WT mice, 0.25 mM/kg i.v. once daily, 4day

YDIQY: penta-peptide of SEQ ID NO: 1 designed from the arginase/p32 binding site; p32 inhibiting activity (printed: Tyr Asp Ile Gln Tyr)
p32 protein level (p32 단백질 [1]; peptide 10 μM, Western blot): 감소되었고 | cytoplasmic p32 protein level (p32 단백질 [1]; peptide 0.01, 0.1, 1, 10 μM): 농도 의존적으로 감소 | CaMKII phosphorylation (activity) (CaMKII): 증가하였고 | eNOS Ser1177 (activating site) phosphorylation (eNOS): 증가되었으며 | eNOS Thr495 (inactivating site) phosphorylation (eNOS): 감소되는 | mitochondrial p32 protein level (p32 단백질 [2]): 유의하게 감소 | p32 ubiquitination vs control (p32 단백질 [3]): 증가되어 | binding of p32 with arginase vs control (알기나제와 p32 단백질의 결합): 감소되어있는 | p32 protein level (p32 단백질 [4]; with proteasome inhibitor MG132 10 μM, 24 h): 감소되지 않는 | p32 protein level (p32 단백질 [4]; without MG132): 감소하였지만 | NO production in aorta (ApoE-/-+HCD 생쥐 대동맥 [5]): 정상 생쥐 수준만큼 회복 | ROS production in aorta (ApoE-/-+HCD 생쥐 대동맥 [6]): 정상 생쥐 수준만큼 회복 | Ach-dependent relaxation of aortic segments (ApoE-/-+HCD 생쥐 대동맥 절편; ApoE-/-+HCD mice, 0.25 mM/kg i.v. x5, Ach 10-9~10^-5 M): 정상 생쥐 수준만큼 회복되는 | PE-dependent contraction of aortic segments (ApoE-/-+HCD 생쥐 대동맥 절편; ApoE-/-+HCD mice, 0.25 mM/kg i.v. x5, PE 10-9~10^-5 M): 정상 생쥐 수준만큼 회복하는 | KCl contraction of aortic segments (ApoE-/-+HCD 생쥐 대동맥 절편; four groups compared, KCl 60 mM, 20 min): 차이가 없음 | SNP-dependent (endothelium-independent) relaxation of aortic segments (ApoE-/-+HCD 생쥐 대동맥 절편; four groups compared, SNP 10-10~10^-6 M): 차이가 없음 | 수축기 (systolic pressure) [7]: 유의하게 감소 | 이완기 (diastolic pressure) [7]: 유의하게 감소 | 평균 대동맥압 (mean aortic pressure) [7]: 유의하게 감소
